Results on seven compounds are retold here after patent US5225404A, “Methods of treating colon tumors with tumor-inhibiting camptothecin compounds” (New York University, priority 1989, dated 1993).

Entries after “also recorded” stand apart in the source; their conditions may differ. Counter-ions that a name gives are not always drawn. Like-named read-outs stand apart in the source and are kept apart here.

The subject of one data set is human colon cancer HT-29. Put plainly: HT-29 human colon cancer xenograft in immunodeficient mice (Example 2). In kind it is in vivo, human (xenograft in immunodeficient NIH-1 mice). From the text: (§1) In these four examples, three xenograft lines of human colon cancer were selected to test the effectiveness of various drugs or compounds in treating human colon cancer. These xenograft lines included the following: (1) A moderate-to-poorly differentiated human colon cancer HT-29; (2) poorly differentiated colon cancer lines designated CASE; and (3) SW48. Liebowitz, A. et al., Cancer Res. 36:4562 (1976); and Fogh, J., et al., Human Tumor Cells […], J. Fogh, ed. Plenum Press, New York, pp. 115-159 (1975). The HT-29, CASE and SW48 cell lines were implanted into immunodeficient NIH-1 mice. Each control or drug-treated group included 6 males. Tumor fragments were implanted on day 0. For each implant, 50 mg of wet weight finely minced tumor tissue in 0.5 ml EMEM (Gibco, Grand Island, N.Y.) was injected under the skin over the right dorsal chest region. The drugs were formulated in Tween 80:0.15 NaCl and injected subcutaneously, with the exception of doxorubicin, which was injected intravenously. The treatment started on day 7 and continued 2x/week for 5-6 weeks. Drug doses were based on an established median toxic dose for the schedule applied. Controls were treated with the solvent only. The tumors were measured in three dimensions with a caliper, and tumor volume calculated. The care and treatment of experimental mice was in accordance with institutional guidelines.
In FIG. 2, 9-AC represents 9-amino-20(RS)-camptothecin. The means of tumor volumes in cubic centimeters (cm^3) were plotted against time; S.D. (standard deviation) of the means was less than 15% of the value.

In another data set the test system is CASE cell line. Put plainly: CASE human colon cancer xenograft in immunodeficient mice (Examples 3, 4, 6). Format: in vivo, human (xenograft in immunodeficient NIH-1 mice).
Description: as §1
In Example 3, the CASE cell line was employed.
Example 4 illustrates the results of an experiment in which a second course of treatment followed a first course of treatment. On day 51 after tumor implantation, mice with CASE tumors and minimal disease received the second course of therapy. These mice received a total of 14 injections (doses) of 12.5 mg/kg body weight/dose (FIG. 4).
(§2) Daily injections or 2 injections per week of 10,11-methylenedioxy-20(RS)-camptothecin (total doses 50-70 mg/kg of body weight) stopped the growth of day-7 CASE tumors for a period of 4-6 weeks in 6/6 mice. Five injections of 10,11-methylenedioxy-20(RS)-camptothecin sodium salt (10 mg/kg body weight/dose) stopped the growth of day-7 CASE tumors in 6/6 mice for a period of 4 weeks. Both drugs inhibited at 30 mg/kg body weight (total dose) the growth of metastases of human colon cancer in the liver of immunodeficient mice, and increased the survival of such mice by ~100% (from average of 23 to 46 days).
A general note: A xenograft is tissue or cells of one species grown in another, often human tumour cells in immunodeficient mice.

For another data set, the system named is topoisomerase I. Put plainly: topoisomerase I-directed screens. In kind it is biochemical.
In data set [1] the test system is metastases of human colon cancer in the liver. Put plainly: metastases of human colon cancer in the liver of immunodeficient mice (Example 6). In kind it is in vivo. The note with it: 30 mg/kg body weight (total dose); for increase of survival: from average of 23 days; for average survival: increased from 23 days. Here is the method: as §2
Data set [2] can be described thus: overall toxicity in tumor-bearing mice (Example 7). In kind it is in vivo. From the text: Another important feature of the method provided by the present invention relates to the relatively low or no apparent overall toxicity of the camptothecin compounds administered in accordance herein. Overall toxicity can be judged using various criteria. For example, loss of body weight in a subject over 10% of the initially recorded body weight (i.e., before treatment) can be considered as one sign of toxicity. In addition, loss of overall mobility and activity and signs of diarrhea or cystitis in a subject can also be interpreted as evidence of toxicity. In one of the examples which follow, the overall toxicity of the camptothecin compounds was evaluated.
The overall toxicity of the colon tumor-inhibiting camptothecin compounds was next to be evaluated at various dosages. The overall toxicity of 9-amino-20(RS)-camptothecin, 10,11-methylenedioxy-camptothecin and the sodium salt of 10,11-methylenedioxy-camptothecin was evaluated in this example as follows: tumor fragments were implanted under the skin of 5-6 mice in each group beginning on day 0. The mice were injected with one of the compounds beginning on day 7 after visible signs that malignant growth of the implanted tumor had occurred. The injections of the compound were given at predetermined doses of 10 or 12.5 mg/kg of body weight per week for a total of 3-6 weeks. Injections were daily or given two times per week. The body weights of the controls (mice with tumors, injected with placebo) and that of the drug-treated mice were taken two times each week and recorded. Overall toxicity was determined in the following way: loss of body weight after treatment in a subject of more than 10% over the initial body weight of the subject recorded at the beginning of the experiment, was considered a sign of toxicity. The mice were also monitored for their ability to regain the lost body weight. Regaining entirely its lost body weight would therefore be a sign of low toxicity in a subject. In addition, mice were monitored for their overall mobility and activity as well as for signs of diarrhea or cystitis. Mobility/activity was judged on a sliding scale of 1 to 5. That is, a score of 1 indicated good mobility/activity and a score of 5 indicated poor mobility/activity. Diarrhea and cystitis were judged on a plus/minus basis.

Data set [3] deals with advanced incurable cancers. The note with it: cited from earlier work.
Data set [4] relates to SW48 human colon cancer cell line. Put plainly: SW48 human colon cancer xenograft in immunodeficient mice (Example 5). In kind it is in vivo, human (xenograft in immunodeficient NIH-1 mice).
Description: as §1
In Example 5, a course of treatment was carried out with the SW48 human colon cancer cell line. This tumor line is extremely unresponsive to treatment. Liebowitz, A., et al., Cancer Res. 36:4562 (1976); and Fogh, J., et al., Human Tumor Cells in Vitro, J. Fogh, ed. Plenum Press, New York, pp. 115-159 (1975).
It should be noted that the first course of treatments of the CASE and SW48 lines, described above, started with well-established tumors, averaging 0.2-0.25 cm^3 in volume. In Example 5, day=35 SW48 tumors (average size 2.5 cm^3), were selected for the first treatment with 9-amino-20(RS)-camptothecin. […]

The next data set deals with subcutaneous tumors. In kind it is in vivo, mice.
The subject of a further data set is colon cancer. The note with it: cited from earlier work.
Setting [5] is: five injections, 10 mg/kg body weight/dose.
The mark [6] stands for this setting: daily treatment, total dose 25 mg/kg.
The mark [7] stands for this setting: first course, 12.5 mg/kg body weight.
Where [8] appears, read: patients with metastases to the liver.
[9] abbreviates: daily or 2 injections per week, total doses 50-70 mg/kg.

For `CN(Cc1cnc2nc(N)nc(N)c2n1)c1ccc(C(=O)N[C@@H](CCC(=O)O)C(=O)O)cc1` [methotrexate, reference compound], the “growth-retardation of tumor implants” value with human colon cancer HT-29 (160 mg/kg body weight/dose) is “only marginal growth-retardation”.
For the compound `CCC(O)(C(=O)O)c1cc2n(c(=O)c1CO)Cc1cc3cc4c(cc3nc1-2)OCO4` (racemic) [sodium salt of 10,11-methylenedioxy-20(RS)-camptothecin], in the data set with CASE cell line (setting [5]), the “mice in which growth of day-7 tumors stopped” value is reported as 6/6 and the “period for which growth of day-7 tumors stopped” value turned out to be 4 weeks. For the same compound, the “activity in topoisomerase I-directed screens” value in the data set on topoisomerase I is recorded as “highly active”. In data set [1], the “growth of metastases of human colon cancer in the liver” value is “inhibited”, the increase of survival is ~ 100% and the average survival is 46 days. For the same compound, in data set [2] (62.5 mg/kg body weight), the toxic deaths result is given as “toxic deaths of all animals”. Also, in data set [2] (setting [6]), the “Overall Toxicity” value is “animal deaths” and the “Overall Toxicity: body weight loss” value was below 10%. Also, in [2] (daily treatment, total dose 200 mg/kg), the “Overall Toxicity” value is “animal deaths”. Also, the “Overall Toxicity: body weight loss” value in data set [2] (twice/week treatment, total dose 50 mg/kg) is given as 20%. Further, the “Overall Toxicity” value in data set [2] (twice/week treatment, total dose 62.5 mg/kg) is “animal deaths”.
Consider `CC[C@@](O)(C(=O)O)c1cc2n(c(=O)c1CO)Cc1cc3ccccc3nc1-2` [sodium salt of 20(S)-camptothecin], for which, in data set [3] (patients with various cancers), the “limiting factor (toxicity)” value is recorded as “Leukopenia” and the “most prominent non-hematological complication” value is given as “Hemorrhagic cystitis”. For the same compound, the “gastrointestinal toxicity or sterile hemorrhagic cystitis observed among patients” value in [3] (patients) is on record as “observed”. Besides, the clinical response result in data set [3] (several patients, some with colorectal cancer, unresponsive to previous treatments) was “temporary relief of the disease”. The “median survival (in words)” value in data set [3] (several patients, some with colorectal cancer) is recorded as “marginal prolongation of median survival”.
Regarding `CCC1(O)C(=O)OCc2c1cc1n(c2=O)Cc2cc3cc(N)ccc3nc2-1` (racemic) [10-amino-20(RS)-camptothecin, reference compound], the toxic deaths entry in [2] (25 mg/kg body weight) is “toxic deaths of all animals”. Also, the “Overall Toxicity: body weight loss” value in data set [2] (twice/week treatment, total dose 100 mg/kg) is recorded as below 15%.
Take `CCC1(O)C(=O)OCc2c1cc1n(c2=O)Cc2cc3c(N)cccc3nc2-1` (racemic) [9-amino-20(RS)-camptothecin]: the “duration of remission (mean+S.D.)” value came to 62 ± 20 days in the data set on human colon cancer HT-29 (10 mg/kg body weight/dose) and 56 ± 15 days with human colon cancer HT-29 (12.5 mg/kg body weight/dose). Further, in the data set with human colon cancer HT-29 (10 mg/kg/dose s.c., twice a week, 6 weeks), the “mice with no evidence of disease (NED) or minimal disease (tumor volume=0.1 cm^3)” value is given as 5/6. For the same compound, the “mice with NED or minimal disease” value (in the data set on human colon cancer HT-29 (12.5 mg/kg body weight/dose); in the data set with CASE cell line (setting [7]); in [4] (setting [7])) was 6/6 in each case. Further, in the data set with human colon cancer HT-29 (second course, average tumor size 8.3 cm^3, total dose 60 mg/kg), the “reduction of tumor volume (average)” value was found to be 45%. For the same compound, the “long-term tumor-free survival (in excess of 7 months)” value is 7/8 in the data set with CASE cell line (CASE tumors, after second course) and 6/6 in data set [4] (after second course, 75 mg/kg total dose). For the same compound, in the data set with CASE cell line (second course, total of 14 doses of 12.5 mg/kg), the “mice with NED” value is recorded as 5/6. Besides, the “mice with minimal disease” value with CASE cell line (second course, total of 14 doses of 12.5 mg/kg, of 6 mice) is reported as “the other had minimal disease”. Besides, in data set [4] (first treatment of day 35 tumors (average 2.5 cm^3), 6 doses of 12.5 mg/kg, twice a week), the “reduction in the volume of the tumors (average)” value amounted to 91%. In addition, the “gastrointestinal toxicity or sterile hemorrhagic cystitis” value in [2] (second course, 50-75 mg/kg) is recorded as “no signs”. In data set [2] (second course, 50-75 mg/kg body weight), the “toxicity of second course of treatment” value is recorded as “more toxic than the first”. In addition, the “Overall Toxicity” value in [2] (twice/week treatment, total dose 150 mg/kg, 150 mg/kg) is reported as “no overall toxicity”; in [2] (twice/week treatment, total dose 150 mg/kg, listed as 9-Amino-20(RS)-camptothecin, 150 mg/kg), “none”. In addition, in data set [2] (twice/week treatment, total dose 175 mg/kg (cumulative)), the “Overall Toxicity: body weight loss” value is at most 20%. Also, the “therapeutic response (in words)” value with subcutaneous tumors (mouse, in vivo) is “completely reducing subcutaneous tumors; also recorded: complete reduction of subcutaneous tumors”.
`O=c1[nH]cc(F)c(=O)[nH]1` [5-fluorouracil]: in the data set on human colon cancer HT-29 (80 mg/kg of body weight/dose), the “growth-retardation of tumor implants” value is on record as “only marginal growth-retardation”. Moreover, the “effectiveness in treating colon cancer” value in the data set on colon cancer (human, in vivo) is recorded as “only marginally effective”. In addition, in the data set with colon cancer (setting [8]), the “cases with temporary improvement” value is given as at most 25% and the overall survival result is on record as “not significantly affected”.
Take `CCC1(O)C(=O)OCc2c1cc1n(c2=O)Cc2cc3cc4c(cc3nc2-1)OCO4` (racemic) [10,11-methylenedioxy-20(RS)-camptothecin]: in the data set with CASE cell line (setting [9]), the “mice in which growth of day-7 tumors stopped” value is listed as 6/6 and the “period for which growth of day-7 tumors stopped” value is 4-6 weeks. The “activity in topoisomerase I-directed screens” value in the data set on topoisomerase I was “highly active”. In data set [1], the “growth of metastases of human colon cancer in the liver” value is reported as “inhibited”, the increase of survival is listed as ~ 100% and the average survival was 46 days. In [2] (70 mg/kg body weight (total dose)), the “decrease of body weight” value was “less than 10%”. Further, the “Overall Toxicity” value in data set [2] (twice/week treatment, total dose 100 mg/kg, 100 mg/kg) is on record as “no overall toxicity”. Also, the “Overall Toxicity” value in data set [2] (twice/week treatment, total dose 100 mg/kg, listed as 10,11-Methylenedioxy-20(RS), 100 mg/kg) is “none”. Besides, the “Overall Toxicity” value in data set [2] (twice/week treatment, total dose 100 mg/kg, listed as 10,11-methylenedioxy-20(RS) camptothecin, 100 mg/kg) is “no overall toxicity”. For the same compound, the “therapeutic response (in words)” value in the data set on subcutaneous tumors (100 mg/kg, two times per week) is on record as “complete reduction of subcutaneous tumors”. Further, the “therapeutic response (in words)” value with subcutaneous tumors (100 mg/kg, two times per week, listed as 10,11-methylenedioxy-20(RS) camptothecin) is on record as “completely reducing subcutaneous tumors”.
